According to PMC9829398 (Plant Biotechnology Journal, 2022):

How the values were obtained:
[1] = test system: tobacco roots; assay: RNA-seq of tobacco roots (DEGs, GO and KEGG classification and enrichment); format: in vivo
[2] = test system: Meloidogyne incognita; assay: Established rice root-knot nematode disease (inhibitor applied after inoculation); format: in vivo; conditions: irrigated three days after inoculation
[3] = test system: Ralstonia solanacearum; format: in vivo, tobacco; conditions: 5 μM irrigated twice two days after inoculation
[4] = test system: CERK1; assay: CERK1-CD kinase activity; format: biochemical, Arabidopsis
Text: Fig. S10. […] (a) Effects of FER inhibitors on the kinase activity of the Arabidopsis receptor kinase PEPR1 and CERK1 cytoplasmic domains (CDs). […] AT1G73080. […] AT3G21630. DMSO (0.05%; v/v) was used as a negative control. The data are shown as the means ± SDs (n = 4). The assay was repeated three times with similar results. ***, […]) Protein purification of PEPR1-CD and CERK1-CD. […] In (c and d), the data are presented as the means ± SDs of three biological replicates.

[5] = test system: HERK1‐CD; assay: HERK1-CD kinase activity (autophosphorylation); format: biochemical, Arabidopsis thaliana; conditions: 5 μM
[6] = KEGG ko00040 Pentose and glucuronate interconversions
[7] = KEGG ko00052 Galactose metabolism
[8] = KEGG ko00062 Fatty acid elongation
[9] = KEGG ko00071 Fatty acid degradation
[10] = KEGG ko00073 Cutin, suberine and wax biosynthesis
[11] = KEGG ko00100 Steroid biosynthesis
[12] = KEGG ko00250 Alanine, aspartate and glutamate metabolism
[13] = KEGG ko00270 Cysteine and methionine metabolism
[14] = KEGG ko00290 Valine, leucine and isoleucine biosynthesis
[15] = KEGG ko00330 Arginine and proline metabolism
[16] = KEGG ko00350 Tyrosine metabolism
[17] = KEGG ko00360 Phenylalanine metabolism
[18] = KEGG ko00410 beta-Alanine metabolism
[19] = KEGG ko00430 Taurine and hypotaurine metabolism
[20] = KEGG ko00460 Cyanoamino acid metabolism
[21] = KEGG ko00480 Glutathione metabolism
[22] = KEGG ko00500 Starch and sucrose metabolism
[23] = KEGG ko00511 Other glycan degradation
[24] = KEGG ko00520 Amino sugar and nucleotide sugar metabolism
[25] = KEGG ko00531 Glycosaminoglycan degradation
[26] = KEGG ko00561 Glycerolipid metabolism
[27] = KEGG ko00564 Glycerophospholipid metabolism
[28] = KEGG ko00590 Arachidonic acid metabolism
[29] = KEGG ko00591 Linoleic acid metabolism
[30] = KEGG ko00592 alpha-Linolenic acid metabolism
[31] = KEGG ko00603 Glycosphingolipid biosynthesis - globo series
[32] = KEGG ko00604 Glycosphingolipid biosynthesis - ganglio series
[33] = KEGG ko00650 Butanoate metabolism
[34] = KEGG ko00730 Thiamine metabolism
[35] = KEGG ko00760 Nicotinate and nicotinamide metabolism
[36] = KEGG ko00770 Pantothenate and CoA biosynthesis
[37] = KEGG ko00904 Diterpenoid biosynthesis
[38] = KEGG ko00905 Brassinosteroid biosynthesis
[39] = KEGG ko00906 Carotenoid biosynthesis
[40] = KEGG ko00908 Zeatin biosynthesis
[41] = KEGG ko00909 Sesquiterpenoid and triterpenoid biosynthesis
[42] = KEGG ko00910 Nitrogen metabolism
[43] = KEGG ko00940 Phenylpropanoid biosynthesis
[44] = KEGG ko00941 Flavonoid biosynthesis
[45] = KEGG ko00950 Isoquinoline alkaloid biosynthesis
[46] = KEGG ko00960 Tropane, piperidine and pyridine alkaloid biosynthesis
[47] = KEGG ko00980 Metabolism of xenobiotics by cytochrome P450
[48] = KEGG ko00982 Drug metabolism - cytochrome P450
[49] = KEGG ko01040 Biosynthesis of unsaturated fatty acids
[50] = KEGG ko03320 PPAR signaling pathway
[51] = KEGG ko04010 MAPK signaling pathway
[52] = KEGG ko04011 MAPK signaling pathway - yeast
[53] = KEGG ko04020 Calcium signaling pathway
[54] = KEGG ko04022 cGMP-PKG signaling pathway
[55] = KEGG ko04075 Plant hormone signal transduction
[56] = KEGG ko04140 Regulation of autophagy
[57] = KEGG ko04211 Longevity regulating pathway
[58] = KEGG ko04212 Longevity regulating pathway - worm
[59] = KEGG ko04370 VEGF signaling pathway
[60] = KEGG ko04380 Osteoclast differentiation
[61] = KEGG ko04614 Renin-angiotensin system
[62] = KEGG ko04626 Plant-pathogen interaction
[63] = KEGG ko04650 Natural killer cell mediated cytotoxicity
[64] = KEGG ko04660 T cell receptor signaling pathway
[65] = KEGG ko04662 B cell receptor signaling pathway
[66] = KEGG ko04712 Circadian rhythm - plant
[67] = KEGG ko04720 Long-term potentiation
[68] = KEGG ko04723 Retrograde endocannabinoid signaling
[69] = KEGG ko04724 Glutamatergic synapse
[70] = KEGG ko04810 Regulation of actin cytoskeleton
[71] = KEGG ko04920 Adipocytokine signaling pathway
[72] = KEGG ko04921 Oxytocin signaling pathway
[73] = KEGG ko04922 Glucagon signaling pathway
[74] = KEGG ko04974 Protein digestion and absorption
[75] = KEGG ko04975 Fat digestion and absorption
[76] = tobacco roots, 5 μM irrigated twice, coregulated genes, vs DMSO

O=C(O)c1cc(N(Cc2ccccc2O)Cc2cc(O)ccc2O)ccc1O [Lavendustin A]
Enrichment_score [1, 6]: 1.762 | ListHits [1, 6]: 11 | Enrichment_score [1, 7]: 3.118 | ListHits [1, 7]: 9 | Enrichment_score [1, 8]: 4.058 | ListHits [1, 8]: 8 | Enrichment_score [1, 9]: 0.9908 | ListHits [1, 9]: 2 | Enrichment_score [1, 10]: 6.683 | ListHits [1, 10]: 16 | Enrichment_score [1, 11]: 3.5933 | ListHits [1, 11]: 7 | Enrichment_score [1, 12]: 2.602 | ListHits [1, 12]: 8 | Enrichment_score [1, 13]: 1.358 | ListHits [1, 13]: 8 | Enrichment_score [1, 14]: 1.495 | ListHits [1, 14]: 2 | Enrichment_score [1, 15]: 2.996 | ListHits [1, 15]: 9 | Enrichment_score [1, 16]: 1.721 | ListHits [1, 16]: 4 | Enrichment_score [1, 17]: 3.551 | ListHits [1, 17]: 8 | Enrichment_score [1, 18]: 1.826 | ListHits [1, 18]: 6 | Enrichment_score [1, 19]: 1.704 | ListHits [1, 19]: 1 | Enrichment_score [1, 20]: 2.209 | ListHits [1, 20]: 7 | Enrichment_score [1, 21]: 1.785 | ListHits [1, 21]: 8 | Enrichment_score [1, 22]: 2.489 | ListHits [1, 22]: 34 | Enrichment_score [1, 23]: 1.253 | ListHits [1, 23]: 1 | Enrichment_score [1, 24]: 1.791 | ListHits [1, 24]: 14 | Enrichment_score [1, 25]: 1.152 | ListHits [1, 25]: 1 | Enrichment_score [1, 26]: 2.272 | ListHits [1, 26]: 8 | Enrichment_score [1, 27]: 1.826 | ListHits [1, 27]: 9 | Enrichment_score [1, 28]: 1.2911 | ListHits [1, 28]: 1 | Enrichment_score [1, 29]: 6.087 | ListHits [1, 29]: 6 | Enrichment_score [1, 30]: 4.111 | ListHits [1, 30]: 11 | Enrichment_score [1, 31]: 4.485 | ListHits [1, 31]: 2 | Enrichment_score [1, 32]: 4.734 | ListHits [1, 32]: 1 | Enrichment_score [1, 33]: 1.671 | ListHits [1, 33]: 2 | Enrichment_score [1, 34]: 1.522 | ListHits [1, 34]: 1 | Enrichment_score [1, 35]: 4.438 | ListHits [1, 35]: 5 | Enrichment_score [1, 36]: 1.397 | ListHits [1, 36]: 2 | Enrichment_score [1, 37]: 1.0025 | ListHits [1, 37]: 2 | Enrichment_score [1, 38]: 2.84 | ListHits [1, 38]: 2 | Enrichment_score [1, 39]: 1.079 | ListHits [1, 39]: 2 | Enrichment_score [1, 40]: 1.973 | ListHits [1, 40]: 5 | Enrichment_score [1, 41]: 1.739 | ListHits [1, 41]: 2 | Enrichment_score [1, 42]: 6.015 | ListHits [1, 42]: 12 | Enrichment_score [1, 43]: 5.314 | ListHits [1, 43]: 58 | Enrichment_score [1, 44]: 1.173 | ListHits [1, 44]: 3 | Enrichment_score [1, 45]: 2.794 | ListHits [1, 45]: 4 | Enrichment_score [1, 46]: 4.058 | ListHits [1, 46]: 6 | Enrichment_score [1, 47]: 2.166 | ListHits [1, 47]: 6 | Enrichment_score [1, 48]: 2.749 | ListHits [1, 48]: 8 | Enrichment_score [1, 49]: 1.121 | ListHits [1, 49]: 2 | Enrichment_score ([1]; KEGG ko02010 ABC transporters): 2.282 | ListHits ([1]; KEGG ko02010 ABC transporters): 3 | Enrichment_score [1, 50]: 2.72 | ListHits [1, 50]: 3 | Enrichment_score [1, 51]: 1.195 | ListHits [1, 51]: 3 | Enrichment_score [1, 52]: 1.3634 | ListHits [1, 52]: 4 | Enrichment_score [1, 53]: 1.535 | ListHits [1, 53]: 4 | Enrichment_score [1, 54]: 1.209 | ListHits [1, 54]: 4 | Enrichment_score [1, 55]: 1.797 | ListHits [1, 55]: 28 | Enrichment_score [1, 56]: 1.598 | ListHits [1, 56]: 3 | Enrichment_score ([1]; KEGG ko04146 Peroxisome): 1.462 | ListHits ([1]; KEGG ko04146 Peroxisome): 7 | Enrichment_score [1, 57]: 1.677 | ListHits [1, 57]: 5 | Enrichment_score [1, 58]: 1.175 | ListHits [1, 58]: 4 | Enrichment_score ([1]; KEGG ko04360 Axon guidance): 2.905 | ListHits ([1]; KEGG ko04360 Axon guidance): 6 | Enrichment_score [1, 59]: 2.242 | ListHits [1, 59]: 3 | Enrichment_score [1, 60]: 2.242 | ListHits [1, 60]: 3 | Enrichment_score [1, 61]: 9.13 | ListHits [1, 61]: 3 | Enrichment_score [1, 62]: 1.285 | ListHits [1, 62]: 13 | Enrichment_score [1, 63]: 2.412 | ListHits [1, 63]: 3 | Enrichment_score [1, 64]: 2.905 | ListHits [1, 64]: 3 | Enrichment_score [1, 65]: 2.204 | ListHits [1, 65]: 3 | Enrichment_score [1, 66]: 1.266 | ListHits [1, 66]: 3 | Enrichment_score [1, 67]: 1.66 | ListHits [1, 67]: 3 | Enrichment_score [1, 68]: 1.014 | ListHits [1, 68]: 1 | Enrichment_score [1, 69]: 1.982 | ListHits [1, 69]: 4 | Enrichment_score ([1]; KEGG ko04727 GABAergic synapse): 1.8 | ListHits ([1]; KEGG ko04727 GABAergic synapse): 3 | Enrichment_score [1, 70]: 1.244 | ListHits [1, 70]: 4 | Enrichment_score [1, 71]: 3.4085 | ListHits [1, 71]: 6 | Enrichment_score [1, 72]: 1.746 | ListHits [1, 72]: 5 | Enrichment_score [1, 73]: 1.2104 | ListHits [1, 73]: 5 | Enrichment_score ([1]; KEGG ko04924 Renin secretion): 2.282 | ListHits ([1]; KEGG ko04924 Renin secretion): 3 | Enrichment_score [1, 74]: 11.3617 | ListHits [1, 74]: 4 | Enrichment_score [1, 75]: 3.551 | ListHits [1, 75]: 1 | Enrichment_score ([1]; KEGG ko04976 Bile secretion): 2.324 | ListHits ([1]; KEGG ko04976 Bile secretion): 3 | Expression levels of growth-related genes in tobacco roots ([1]; RNA-seq, GO growth, vs DMSO): differentially elevated the expression levels of most growth‐related genes | Expression levels of RBOHs, MYB44, TGA2, WRKY19, EFR, FLS2, PR1 and PDF1.4 in tobacco roots ([1]; RNA-seq, vs DMSO): significantly increased the expression levels | Antioxidant genes (GO antioxidant activity) up-regulated [1, 76]: 60 of 61 | Immune genes (GO immune system process) up-regulated [1, 76]: 70 of 82 | Environmental adaptation-related genes (KEGG) up-regulated ([1]; tobacco roots, coregulated genes, vs DMSO): 22 of 29 | Effect on established rice root-knot nematode disease [2]: could not completely prevent the occurrence of the diseases or cure already diseased plants | Effect on established tobacco bacterial wilt [3]: could not completely prevent the occurrence of the diseases or cure already diseased plants | Effect on CERK1 kinase activity [4]: did not affect the kinase activity | Inhibition rate of HERK1-CD kinase activity [5]: lower than 55%
